The subject of experiment [1] is HeLa cells. The experiment is described as follows: Cell cycle analysis (PI staining, flow cytometry). It counts as cell-based, human. The note with it: 24 h, concentration corresponding to IC50. How it is done:
The MTT and LDH release assays provided evidence that aziridine phosphine oxides 5 and 7 inhibit cancer cell viability at concentrations equal to their respective IC50 values through antiproliferative mechanisms rather than by inducing cell death. It is expected that such observations will be reflected in cell cycle disturbances. To investigate which phase of the cell cycle is arrested, a cell cycle analysis was performed using propidium iodide (PI) staining. PI binds in proportion to the amount of DNA present in the cell. As a result of DNA replication, the cells in the S phase of the cell cycle contain more DNA than cells in the G1 phase. […] Before the exact analysis of the obtained results, we utilized a pre-gate to define the counted cells to be analyzed for cell cycle distribution. […] These findings confirmed the antiproliferative activity of these compounds.
Figure 4 Effects of 5 and 7 on cell cycle phase distribution in HeLa cells compared to untreated control. […] Data are expressed as mean ± SD of two independent experiments. Statistical significance in comparison with the untreated control, measured by two-way analysis of variance (ANOVA) followed by Bonferroni multiple comparison test, is indicated by asterisks: (*) p < 0.05, (**) p < 0.01, (***) p < 0.001.
Cell cycle analysis: The distribution of cell cycle phases was measured using flow cytometry and propidium iodide (PI) staining. The PI intercalates into the major groove of double-stranded DNA, producing a highly fluorescent signal when excited at 488 nm, with a broad emission centered around 600 nm. PI binds in proportion to the amount of DNA present in the cell. HeLa cells were seeded on 60 mm dishes at a density of 5 × 10^5 in 3 mL of Dulbecco’s Modified Eagle’s Medium F12 (DMEM-F12, Biowest, Nuaillé, France) supplemented with 10% fetal bovine serum (FBS, Biowest), 100 units/mL of penicillin G and 100 μg/mL of streptomycin (Biowest, Nuaillé, France) and incubated for 24 h at 37 °C and 5% CO2. Then, compounds 5 or 7 were added at a concentration corresponding to their IC50 values and the plate was incubated for the next 24 h. Untreated cells were used as a positive control. The cells were then harvested by trypsinization, suspended in culture medium (1 mL), centrifuged at 3600 rpm for 10 min, and washed twice with dPBS (Dulbecco’s phosphate-buffered saline, Cytogen–Polska Sp. z o.o, Zgierz, Poland). The cell sediment was resuspended in dPBS (600 μL) and fixed in 70% ice-cold ethanol. After storing the cells at 4 °C for 24 h, they were stained in PI staining solution (600 µL, 50 μg/mL of PI, and 100 μg/mL of RNAse A in dPBS) and incubated for 30 min at 37 °C in darkness. The cell cycle distribution was analyzed by flow cytometry using an LSRII (Becton Dickinson, Franklin Lakes, NJ, USA) instrument at 488 nm excitation and 535/617 emission wavelengths, and the cell cycle phase distribution from two independent experiments (10,000 cell counts/sample) was determined with the FlowJo 7.6.1 software (FlowJo, LLC, Ashland, OR, USA) using a built-in cell cycle analysis module (Watson pragmatic algorithm).

Experiment [2] deals with Klebsiella pneumoniae ATCC 13883. The experiment is described as follows: MIC, two-fold microdilution (EUCAST), K. pneumoniae reference strain. It counts as cell-based. As to conditions: Klebsiella pneumoniae, ATCC13883, 18 h, read-out: MIC (µM) Klebsiella pneumoniae ATCC 13883. From the text: (§1) A panel of reference bacteria, including Escherichia coli NCTC 8196, Staphylococcus aureus ATCC 6538, Klebsiella pneumoniae ATCC 13883, and Pseudomonas aeruginosa NCTC 6749, was used to assess the antibacterial activity of the nine tested aziridine phosphines (1–4) and aziridine phosphine oxides (5–9). The two-fold microdilution method, following EUCAST guidelines, was used to determine a minimal inhibitory concentration (MIC) of each compound, as presented in Table S1.
(§2) Antibacterial activity: The in vitro antibacterial activity of nine tested aziridine phosphines (1–4) and aziridine phosphine oxides (5–9) was evaluated against reference bacterial strains (E. coli NCTC 8196, S. aureus ATCC 6538, K. pneumoniae ATCC 13883, P. aeruginosa NCTC 6749) and 12 S. aureus clinical isolates, including two methicillin-resistant isolates (MRSA, D15 and D17) obtained from infected patients hospitalized at the Oncological Hospital in Lodz (Poland). All strains were kept frozen at −80 °C in Tryptic Soy Broth with 15% glycerol. The minimal inhibitory concentration (MIC) is defined as the lowest concentration of the compound that prevents visible growth of bacteria using the microdilution method followed the EUCAST guidelines. Each compound was added to 96-well microplates in two-fold dilutions at concentrations from 3.125 to 100 μM in Mueller–Hinton broth. […] Bacterial culture was added into wells at a density of 5 × 10^5 CFU mL^−1, and plates were incubated at 37 °C for 18 h. As a positive control, an untreated bacterial culture was used, and a clear culture medium served as a negative control. The optical density at OD600 was measured using the SpectraMax i3 Multi-Mode Platform (Molecular Devices, San Jose, CA, USA). Ciprofloxacin hydrochloride (CIP, Sigma-Aldrich, Darmstadt, Germany) was used as a reference antimicrobial drug.

The test system of experiment [3] is Escherichia coli NCTC 8196. The experiment is described as follows: MIC, two-fold microdilution (EUCAST), E. coli reference strain. It counts as cell-based. As to conditions: Escherichia coli, NCTC8196, 18 h, read-out: MIC (µM) Escherichia coli NCTC 8196.
Source text: as §1, §2
(In general: Broth dilution looks for growth in wells or tubes with falling amounts of substance.)

The subject of experiment [4] is Pseudomonas aeruginosa NCTC 6749. The experiment is described as follows: MIC, two-fold microdilution (EUCAST), P. aeruginosa reference strain. The note with it: Pseudomonas aeruginosa, NCTC6749, 18 h, read-out: MIC (µM) Pseudomonas aeruginosa NCTC 6749. It counts as cell-based.
Source text: as §1, §2

In experiment [5] the test system is clinical S. aureus strains. The experiment is described as follows: MIC, microdilution, 12 clinical S. aureus strains. It counts as cell-based, Staphylococcus aureus. As to conditions: panel of 12 clinical isolates (naso-pharynx, ulcers/furuncles, bones), highest tested concentration 100 µM.
Source text: as §1, §2

Values after ≈ are worked out from the molar mass of the structure shown.

In general, MIC refers to the smallest concentration in the dilution series that meets the test's criterion for growth inhibition. As to `CC(C)[C@@H]1CN1c1ccccc1P(=O)(c1ccccc1)c1ccccc1` [Compound 5], the “cell cycle arrest (phase distribution)” value in experiment [1] is listed as “significant cell arrest in the S phase”. Moreover, the “number of cells in the sub-G1 phase (indicative of apoptosis)” value in experiment [1] is “significantly increased”. Besides, the “stage of S-phase arrest (histograms of cell cycle distribution)” value in experiment [1] is “cell arrest mainly in the early stages of the S phase”. Moreover, the MIC in experiment [2] is above 100 µM; in experiment [3], above 100 µM; in experiment [4] it was above 100 µM; in experiment [5] (Staphylococcus aureus) it was 100 µM (≈ 36.1 µg/mL); in experiment [5], 100 µM (≈ 36.1 µg/mL).
For `CC(C)C[C@H]1CN1c1ccccc1P(=O)(c1ccccc1)c1ccccc1` [Compound 7], the “cell cycle arrest (phase distribution)” value in experiment [1] is “significant cell arrest in the S phase”. Moreover, the “number of cells in the sub-G1 phase (indicative of apoptosis)” value in experiment [1] is listed as “significantly increased”. In addition, the “stage of S-phase arrest (histograms of cell cycle distribution)” value in experiment [1] is reported as “more effective in the late S phase”. The minimum inhibitory concentration (MIC) in experiment [2] was above 100 µM; in experiment [3], above 100 µM; in experiment [4] it was above 100 µM; in experiment [5] (Staphylococcus aureus), 100 µM (≈ 37.5 µg/mL); in experiment [5], 100 µM (≈ 37.5 µg/mL).

(Values after paper PMC11012799 (Molecules, 2024).)
